# Laboratory results reported in US20200163913A1 (Shanghai Huali Biomedical Co., Ltd., priority 2017, published 2020).
# Test system: human cervical cancer cell HeLa
# Assay: CCK-8 cell proliferation inhibition, HeLa
# Format: cell-based
# Conditions: Homo sapiens, HeLa, 72 h, CCK-8, 72 h; read-out: IC50 Hela
# Protocol: (§1) Take more than 90% of live cells for experiments. Cell proliferation inhibition test uses EnoGeneCell™ Counting Kit-8 (CCK-8) cell viability detection kit. Cells are digested and counted to make a cell suspension with a concentration of 1×10^5 cells/mL, 100 μL of cell suspension (1×10^4 cells per well) was added to each well of a 96-well plate; Incubate in a 5% CO2 incubator for 24 hours; add 100 μL of the corresponding drug-containing culture medium to each well, and set a negative control group, a vehicle control group, and a positive control group, with 5 replicates in each group; place the 96-well plate at 37° C.
row,Structure (SMILES),IC50 [µM]
1,COc1cc(CCc2ccc(OC(F)F)c(OS(N)(=O)=O)c2)cc(OC)c1OC [Compound A3-3],35.6
2,"COc1cc(/C=C/c2cccc(OS(N)(=O)=O)c2)cc(OC)c1OC [Compound A4-2, (E)-3,4,5-trimethoxy-3′-sulfamate stilbene]",19
3,"COc1cc(CCc2cccc(OS(N)(=O)=O)c2)cc(OC)c1OC [Compound A4-3, 3,4,5-trimethoxy-3′-sulfamate diphenylethane]",27.1

# The next lines start with the values.
row,IC50 [µM],Structure (SMILES)
1,2.93,"CCOc1ccc(CCc2cc(OC)c(OC)c(OC)c2)cc1OS(N)(=O)=O [Compound A2-3, 3,4,5-trimethoxy-4′-ethoxy-3′-sulfamate diphenylethane]"
2,16.3,"COc1cc(/C=C\c2cccc(OS(N)(=O)=O)c2)cc(OC)c1OC [Compound A4-1, (Z)-3,4,5-trimethoxy-3′-sulfamate stilbene]"

# Test system: human lung cancer cell A549
# Assay: CCK-8 cell proliferation inhibition, A549
# Format: cell-based
# Conditions: A549, CCK-8, 72 h, read-out: IC50 A549
# Protocol: as §1
row,Structure (SMILES),IC50 [µM]
1,"COc1cc(/C=C/c2cccc(OS(N)(=O)=O)c2)cc(OC)c1OC [Compound A4-2, (E)-3,4,5-trimethoxy-3′-sulfamate stilbene]",21.5
2,"COc1cc(CCc2cccc(OS(N)(=O)=O)c2)cc(OC)c1OC [Compound A4-3, 3,4,5-trimethoxy-3′-sulfamate diphenylethane]",25.8

# The next lines start with the values.
row,IC50 [µM],Structure (SMILES)
1,1.6,"CCOc1ccc(CCc2cc(OC)c(OC)c(OC)c2)cc1OS(N)(=O)=O [Compound A2-3, 3,4,5-trimethoxy-4′-ethoxy-3′-sulfamate diphenylethane]"
2,11,"COc1cc(/C=C\c2cccc(OS(N)(=O)=O)c2)cc(OC)c1OC [Compound A4-1, (Z)-3,4,5-trimethoxy-3′-sulfamate stilbene]"

# Test system: human colon cancer cell HCT-116
# Assay: CCK-8 cell proliferation inhibition, HCT-116
# Format: cell-based
# Conditions: Homo sapiens, HCT-116, 72 h, CCK-8, 72 h; read-out: IC50 HTC116
# Protocol: as §1
row,Structure (SMILES),IC50 [µM]
1,COc1cc(CCc2ccc(OC(F)F)c(OS(N)(=O)=O)c2)cc(OC)c1OC [Compound A3-3],26.5
2,"COc1cc(/C=C/c2cccc(OS(N)(=O)=O)c2)cc(OC)c1OC [Compound A4-2, (E)-3,4,5-trimethoxy-3′-sulfamate stilbene]",40.3
3,"COc1cc(CCc2cccc(OS(N)(=O)=O)c2)cc(OC)c1OC [Compound A4-3, 3,4,5-trimethoxy-3′-sulfamate diphenylethane]",52.5

# More lines, now with the values ahead:
row,IC50 [µM],Structure (SMILES)
1,10.2,"CCOc1ccc(CCc2cc(OC)c(OC)c(OC)c2)cc1OS(N)(=O)=O [Compound A2-3, 3,4,5-trimethoxy-4′-ethoxy-3′-sulfamate diphenylethane]"
2,9.5,"COc1cc(/C=C\c2cccc(OS(N)(=O)=O)c2)cc(OC)c1OC [Compound A4-1, (Z)-3,4,5-trimethoxy-3′-sulfamate stilbene]"

# Test system: human liver cancer cell HepG2
# Assay: CCK-8 cell proliferation inhibition, HepG2
# Format: cell-based
# Conditions: Homo sapiens, HepG2, 72 h, CCK-8, 72 h; read-out: IC50 HepG2
# Protocol: as §1
row,Structure (SMILES),IC50 [µM]
1,COc1cc(CCc2ccc(OC(F)F)c(OS(N)(=O)=O)c2)cc(OC)c1OC [Compound A3-3],15.9
2,"COc1cc(/C=C/c2cccc(OS(N)(=O)=O)c2)cc(OC)c1OC [Compound A4-2, (E)-3,4,5-trimethoxy-3′-sulfamate stilbene]",11.8
3,"COc1cc(CCc2cccc(OS(N)(=O)=O)c2)cc(OC)c1OC [Compound A4-3, 3,4,5-trimethoxy-3′-sulfamate diphenylethane]",12

# Next, values leading:
row,IC50 [µM],Structure (SMILES)
1,3.65,"CCOc1ccc(CCc2cc(OC)c(OC)c(OC)c2)cc1OS(N)(=O)=O [Compound A2-3, 3,4,5-trimethoxy-4′-ethoxy-3′-sulfamate diphenylethane]"
2,9.36,"COc1cc(/C=C\c2cccc(OS(N)(=O)=O)c2)cc(OC)c1OC [Compound A4-1, (Z)-3,4,5-trimethoxy-3′-sulfamate stilbene]"

# Test system: human gastric cancer cell MKN45
# Assay: CCK-8 cell proliferation inhibition, MKN45
# Format: cell-based
# Conditions: MKN-45, 72 h, CCK-8, 72 h, read-out: IC50 MKN45
# Protocol: as §1
row,Structure (SMILES),IC50 [µM]
1,COc1cc(CCc2ccc(OC(F)F)c(OS(N)(=O)=O)c2)cc(OC)c1OC [Compound A3-3],23.3
2,"COc1cc(/C=C/c2cccc(OS(N)(=O)=O)c2)cc(OC)c1OC [Compound A4-2, (E)-3,4,5-trimethoxy-3′-sulfamate stilbene]",27
3,"COc1cc(CCc2cccc(OS(N)(=O)=O)c2)cc(OC)c1OC [Compound A4-3, 3,4,5-trimethoxy-3′-sulfamate diphenylethane]",17.6

# The next lines start with the values.
row,IC50 [µM],Structure (SMILES)
1,7.67,"CCOc1ccc(CCc2cc(OC)c(OC)c(OC)c2)cc1OS(N)(=O)=O [Compound A2-3, 3,4,5-trimethoxy-4′-ethoxy-3′-sulfamate diphenylethane]"
2,8.53,"COc1cc(/C=C\c2cccc(OS(N)(=O)=O)c2)cc(OC)c1OC [Compound A4-1, (Z)-3,4,5-trimethoxy-3′-sulfamate stilbene]"

# Test system: human gastric cancer cell MGC-803
# Assay: CCK-8 cell proliferation inhibition, MGC-803
# Format: cell-based
# Conditions: MGC-803, 72 h, CCK-8, 72 h, read-out: IC50 MGC803
# Protocol: as §1
row,Structure (SMILES),IC50 [µM]
1,COc1cc(CCc2ccc(OC(F)F)c(OS(N)(=O)=O)c2)cc(OC)c1OC [Compound A3-3],71.4
2,"COc1cc(/C=C/c2cccc(OS(N)(=O)=O)c2)cc(OC)c1OC [Compound A4-2, (E)-3,4,5-trimethoxy-3′-sulfamate stilbene]",25
3,"COc1cc(CCc2cccc(OS(N)(=O)=O)c2)cc(OC)c1OC [Compound A4-3, 3,4,5-trimethoxy-3′-sulfamate diphenylethane]",25.7

# Other lines, results leading:
row,IC50 [µM],Structure (SMILES)
1,3.59,"CCOc1ccc(CCc2cc(OC)c(OC)c(OC)c2)cc1OS(N)(=O)=O [Compound A2-3, 3,4,5-trimethoxy-4′-ethoxy-3′-sulfamate diphenylethane]"
2,15.3,"COc1cc(/C=C\c2cccc(OS(N)(=O)=O)c2)cc(OC)c1OC [Compound A4-1, (Z)-3,4,5-trimethoxy-3′-sulfamate stilbene]"

# Target: Arylsulfatase
# Assay: Arylsulfatase activity assay in vitro
# Format: biochemical
# Conditions: p-nitrophenyl sulfate substrate, 405 nm; read-out: IC50 sulfatase
# Protocol: Weigh an appropriate amount of the test compound and dissolve it in dimethyl sulfoxide. Dilute it with Tris-HCl buffer for 2, 5, 10, 20, 50, 100, 200, 500, 1000, 2000, 5000, and 10,000 times. Add another dilution gradient to the sample. Arylsulfatase and potassium p-nitrophenyl sulfate are directly dissolved in Tris-HCl buffer. 40 μL of the test compound, 50 μL of arylsulfatase and 50 μL of potassium p-nitrobenzene sulfate were added to a 96-well plate for reaction. A blank control without enzymes and a standard control without test compounds are used. The volume is made up with Tris-HCl buffer. 405 nm detection in the microplate reader, each sample is measured for 40 times, and the interval is 30 s. The representative time node within the time period with good linearity of the absorbance value are selected for data analysis. The measured absorbance value are subtracted from the background value of the blank control and the initial value when the reaction time are 0. For comparison, calculate the inhibition rate at different concentrations, and use the built-in forecast function of excel to predict the IC50 value.
row,Structure (SMILES),IC50 [µM]
1,"COc1cc(/C=C\c2cccc(OS(N)(=O)=O)c2)cc(OC)c1OC [Compound A4-1, (Z)-3,4,5-trimethoxy-3′-sulfamate stilbene]",0.47

# Same assay, conditions: read-out: sulfatase inhibitory activity
row,Structure (SMILES),IC50 [µM]
1,"COc1cc(/C=C\c2cccc(OS(N)(=O)=O)c2)cc(OC)c1OC [Compound A4-1, (Z)-3,4,5-trimethoxy-3′-sulfamate stilbene]",< 0.5

# Test system: Tubulin
# Assay: Tubulin polymerization activity test
# Format: biochemical
# Conditions: tubulin 4.8 mg/ml, 37° C., 340 nm; read-out: IC50 (Table 3, tubulin polymerization test)
# Protocol: Tubulin (4.8 mg/ml) protein was mixed with the test compound in a PEM buffer (100 mM PIPES, 1 mM MgCl2 and 1 mM EGTA) containing 1 mM GTP and 5% glycerol. A SPECTRA MAX 190 (Molecular Device) spectrophotometer was used to monitor the microtubule polymerization at 37° C. by light scattering at 340 nm, and the microtubule polymerization was calculated from the absorbance value. Each sample was tested three times at ten different concentrations.
row,Structure (SMILES),IC50 [µM]
1,COc1cc(CCc2ccc(OC(F)F)c(OS(N)(=O)=O)c2)cc(OC)c1OC [Compound A3-3],86.2

# Test system: not given
# Assay: not given
# Conditions: not given
row,Structure (SMILES),melting point [°C]
1,COc1cc(CCc2ccc(OC(F)F)c(OS(N)(=O)=O)c2)cc(OC)c1OC [Compound A3-3],142.5 to 145.8
2,"COc1cc(/C=C/c2cccc(OS(N)(=O)=O)c2)cc(OC)c1OC [Compound A4-2, (E)-3,4,5-trimethoxy-3′-sulfamate stilbene]",136.3 to 139.7
3,"COc1cc(CCc2cccc(OS(N)(=O)=O)c2)cc(OC)c1OC [Compound A4-3, 3,4,5-trimethoxy-3′-sulfamate diphenylethane]",108.4 to 120.8

# The remaining lines, values ahead:
row,melting point [°C],Structure (SMILES)
1,122.3 to 126.7,"CCOc1ccc(CCc2cc(OC)c(OC)c(OC)c2)cc1OS(N)(=O)=O [Compound A2-3, 3,4,5-trimethoxy-4′-ethoxy-3′-sulfamate diphenylethane]"
2,107.1 to 110.6,"COc1cc(/C=C\c2cccc(OS(N)(=O)=O)c2)cc(OC)c1OC [Compound A4-1, (Z)-3,4,5-trimethoxy-3′-sulfamate stilbene]"
